# Assay results: US8269043B2, “Bicyclic aryl sphingosine 1-phosphate analogs” (Biogen Idec MA Inc., priority 2008, dated 2012)
# Key:
# human S1P1 = target: T1, human S1P1 (Homo sapiens, UniProt P21453); experiment: Calcium mobilization assay, agonist activity at human S1P1; format: cell-based; conditions: recombinant CHEM cells expressing human S1P1, FLIPR Calcium 4 dye (FIG. 8, FIG. 11)
# T1 construct: host or cells: recombinant CHEM cells
# Experimental: (§1) Compounds that were not specific for the S1P, receptor, can have activity for other S1P receptor subtypes, e.g., S1P2, S1P3, S1P4, or S1P5, and can cause undesirable side effects. Accordingly, compounds were tested to identify those that were specific for S1P1 activity and had little or no activity, or are antagonists of, S1P3 activity. Accordingly, the test compounds were tested in a calcium mobilization assay to determine agonist activity at either the human S1P1 or human S1P3 receptor, and antagonist activity only at the human S1P3 receptor. The procedure was essentially as described (with modifications described below) in Davis et al. (2005) Journal of Biological Chemistry, vol. 280, pp. 9833-9841, which is incorporated by reference in its entirety. Calcium mobilization assays were performed in recombinant CHEM cells expressing human S1P1 or S1P3 purchased from Millipore (Billerica, Mass.). To detect free intracellular calcium, S1P1 or S1P3 cells were loaded with FLIPR Calcium 4 dye from Molecular Devices (Sunnyvale, Calif.). Cells were imagined for calcium mobilization using a FLIPR^TETRA equipped with a 96-well dispense head.
# human S1P3 receptor [1] = target: T2, human S1P3 receptor (Homo sapiens, UniProt Q99500); experiment: Calcium mobilization assay, agonist activity at human S1P3; format: cell-based; conditions: recombinant CHEM cells expressing human S1P3, FLIPR Calcium 4 dye (FIG. 9, FIG. 11)
# T2 construct: host or cells: recombinant CHEM cells
# T2 sequence (Q99500 whole entry): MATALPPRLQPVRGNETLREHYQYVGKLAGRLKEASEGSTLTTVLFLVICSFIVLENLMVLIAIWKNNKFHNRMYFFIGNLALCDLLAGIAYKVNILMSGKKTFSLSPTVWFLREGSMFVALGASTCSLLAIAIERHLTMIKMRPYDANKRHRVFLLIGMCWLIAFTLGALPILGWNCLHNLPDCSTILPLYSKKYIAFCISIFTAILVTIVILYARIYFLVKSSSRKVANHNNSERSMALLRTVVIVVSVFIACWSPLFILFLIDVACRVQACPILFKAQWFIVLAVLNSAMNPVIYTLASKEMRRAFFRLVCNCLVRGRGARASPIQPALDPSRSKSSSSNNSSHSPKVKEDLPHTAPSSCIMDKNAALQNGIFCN
# Experimental: as §1
# human S1P3 receptor [2] = target: T2, human S1P3 receptor; experiment: Calcium mobilization assay, antagonist activity at human S1P3; format: cell-based; conditions: recombinant CHEM cells expressing human S1P3, FLIPR Calcium 4 dye (FIG. 10, FIG. 11)
# Experimental: as §1
# [3] = system: sphingosine kinase 2 (SK2); experiment: Sphingosine kinase 2 (SK2) substrate assay with lysate of transfected HEK293E cells, HPLC detection; format: biochemical, canine, mouse, or human; conditions: 20 μM test compound, 37° C., 70 minutes, HPLC with and without added SPHK2 (FIG. 7)
# Experimental: To assay a test compound for its properties as a substrate of sphingosine kinase 2 (SK2), an assay using recombinantly expressed SK2 was used. Briefly, HEK293E cells were transiently transfected with plasmids containing DNA encoding a sphingosine kinase 2 (SK2) (canine, mouse, or human). […]
# The SK2 kinase assay was performed in a 200 μL reaction mixture containing 20 μm sphingosine (control) or 20 μM test compound (prepared as a 200 μM stock solution containing 0.1% fatty acid-free bovine serum albumin (BSA)), 38 μL lysate, and 2 μM ATP (freshly prepared). Kinase reactions were incubated at 37° C. for 70 minutes followed by detection of phosphorylated compound (control or test compound) using UV absorbance at 282 nm. […] The supernatant was analyzed on HPLC using a C18 column (FIG. 7). The parent and phosphorylated test compound were quantitated using area under the curve (AUC) calculation. […]
# circulating lymphocytes = experiment: Lymphopenia assay: circulating lymphocytes after oral gavage; format: in vivo; conditions: C57bl/6 male mice, oral gavage 0.5 and 5 mg/kg in 30% HPCD, blood 5 and 24 hours after administration; for ED50: Mus musculus, Lymphocyte, po
# Method in brief: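 Male C57bl/6 mice, 6-10 weeks old, given 0.5 and 5 mg/kg orally by gavage in 30% HPCD, three mice per compound. Retro-orbital blood taken at 5 and 24 h post-dose. Peripheral lymphocytes counted on an automated hematology analyzer.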
# T1 sequence (P21453 whole entry): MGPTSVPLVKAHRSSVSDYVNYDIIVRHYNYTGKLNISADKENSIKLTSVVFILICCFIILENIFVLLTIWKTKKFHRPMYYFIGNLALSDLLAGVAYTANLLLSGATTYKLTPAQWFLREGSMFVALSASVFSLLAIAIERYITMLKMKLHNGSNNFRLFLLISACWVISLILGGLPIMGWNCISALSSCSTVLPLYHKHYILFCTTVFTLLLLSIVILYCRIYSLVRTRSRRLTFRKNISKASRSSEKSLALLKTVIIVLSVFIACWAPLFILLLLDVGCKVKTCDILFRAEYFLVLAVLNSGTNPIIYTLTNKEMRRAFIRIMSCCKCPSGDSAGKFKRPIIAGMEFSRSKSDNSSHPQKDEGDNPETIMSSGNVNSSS
SMILES,S1P3 agonist activity (human S1P3 receptor [1]),ED50 (circulating lymphocytes) [mg/kg],also measured
"C[C@](N)(COP(=O)(O)O)c1ccc2c(C(F)(F)F)c(O[C@H]3CC[C@H](C(F)(F)F)CC3)ccc2c1 [Example 269, Phosphoric acid mono-{(R)-2-amino-2-[5-trifluoromethyl-6-(trans-4-trifluoromethyl-cyclohexyloxy)-naphthalen-2-yl]-propyl}ester]",not S1P3 agonists,,"S1P1 agonist activity (human S1P1): S1P, agonists; S1P3 antagonist activity (human S1P3 receptor [2]): S1P3 antagonists"
"CCCCCCCCCCCCC/C=C/[C@@H](O)[C@@H](N)COP(=O)(O)O [Example S1P, Sphingosine 1-phosphate]",full S1P3 agonist,,
"CCCC[C@H]1CC[C@@H](Oc2ccc3cc([C@@](C)(N)COP(=O)(O)O)ccc3c2C(F)(F)F)CC1 (relative stereo) [Example 21, (R)-2-amino-2-(6-(cis-4-butylcyclohexyloxy)-5-(trifluoromethyl)naphthalen-2-yl)propan-1-phosphoric acid]",weak micromolar partial S1P3 agonist activity,,"phosphorylation of test compound by SPHK2 [3]: the compound is phosphorylated under these conditions; S1P1 agonist activity (human S1P1): agonists of the S1P, receptor, with potencies similar to S1P; S1P3 antagonist activity (human S1P3 receptor [2]): do not antagonize the S1P3 receptor"
"COc1ccc2cc([C@H](C)COC(N)=O)ccc2c1 [Example 2, carbamic acid (S)-2-(6-methoxy-naphthalen-2-yl)-propyl ester]",no activity was seen,,
"C[C@](N)(CO)c1ccc2c(C(F)(F)F)c(O[C@H]3CC[C@H](C4CCCCC4)CC3)ccc2c1 [Example 163, (R)-2-Amino-2-(6-(trans-4-cyclohexylcyclohexyloxy)-5-(trifluoromethyl)naphthalen-2-yl)propan-1-ol]",,< 0.5,
"CC(C)(C)[C@H]1CC[C@H](Oc2ccc3cc([C@]4(C)COC(=O)N4)ccc3c2)CC1 [Example 238, (R)-4-(6-(trans-4-tert-butylcyclohexyloxy)naphthalen-2-yl)-4-methyloxazolidin-2-one]",,< 0.5,
"CCCC[C@H]1CC[C@@H](Oc2ccc3cc([C@@](C)(N)CO)ccc3c2C(F)(F)F)CC1 [Example 17, (R)-2-amino-2-(6-(cis-4-butylcyclohexyloxy)-5-(trifluoromethyl)naphthalen-2-yl)propan-1-ol]",,0.07,
"NC(CO)(CO)c1ccc2cc(Sc3cccc(OCc4ccccc4)c3)ccc2c1 [Example 192, 2-Amino-2-(6-(3-(benzyloxy)phenylthio)naphthalen-2-yl)propane-1,3-diol]",,< 0.5,
"CC(C)(C)[C@H]1CC[C@H](Oc2ccc3cc(C(N)(COP(=O)(O)O)COP(=O)(O)O)ccc3c2C(F)(F)F)CC1 [Example 61A, 2-amino-2-[6-(trans-4-tert-butylcyclohexyloxy)-5-trifluoromethyl-naphthalen-2-yl]-propane-1,3-diphosphoric acid]",,,"S1P1 agonist activity (human S1P1): agonists of the S1P, receptor, with potencies similar to S1P; S1P3 antagonist activity (human S1P3 receptor [2]): do not antagonize the S1P3 receptor"
"CC(C)(C)[C@H]1CC[C@H](Oc2ccc3cc([C@@](C)(N)CO)ccc3c2)CC1 [Example 25, (R)-2-amino-2-(6-(trans-4-tert-butylcyclohexyloxy)naphthalen-2-yl)propan-1-ol]",,,Lymphopenia (ED50 mg/kg) (circulating lymphocytes): >5 mg/kg
"Cc1cc(C)cc(Oc2ccc3cc([C@@](C)(N)CO)ccc3c2)c1 [Example 187, (R)-2-Amino-2-(6-(3,5-dimethylphenoxy)naphthalen-2-yl)propan-1-ol]",,0.5 to 5,
"CC(C)(C)[C@H]1CC[C@H](Oc2ccc3cc([C@@](C)(N)CO)ccc3c2Br)CC1 [Example 237, (R)-2-amino-2-(5-bromo-6-(trans-4-tert-butylcyclohexyloxy)naphthalen-2-yl)propan-1-ol]",,< 0.5,
